One assay has as its target T1, Tyrosinase (Agaricus bisporus, UniProt O42713).
T1 sequence (O42713 whole entry): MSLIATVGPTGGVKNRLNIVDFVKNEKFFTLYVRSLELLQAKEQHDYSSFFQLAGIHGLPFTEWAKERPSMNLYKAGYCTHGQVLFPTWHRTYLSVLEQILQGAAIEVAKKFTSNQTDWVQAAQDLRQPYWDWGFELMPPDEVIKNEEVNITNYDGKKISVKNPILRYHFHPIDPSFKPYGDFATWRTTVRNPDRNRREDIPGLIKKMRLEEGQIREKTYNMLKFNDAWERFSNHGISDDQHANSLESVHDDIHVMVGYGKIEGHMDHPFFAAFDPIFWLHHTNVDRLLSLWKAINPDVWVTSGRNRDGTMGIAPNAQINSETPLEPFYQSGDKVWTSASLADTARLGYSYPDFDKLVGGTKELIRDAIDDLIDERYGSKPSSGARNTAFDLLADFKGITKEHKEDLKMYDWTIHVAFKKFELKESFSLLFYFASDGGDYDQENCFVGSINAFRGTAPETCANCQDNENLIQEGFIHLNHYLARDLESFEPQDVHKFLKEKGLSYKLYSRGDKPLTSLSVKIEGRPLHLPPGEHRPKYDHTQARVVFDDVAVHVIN
In words: Inhibition of mushroom tyrosinase.

Assay [1] deals with T2, Tyrosinase (Agaricus bisporus) (UniProt O42713).
T2 sequence (whole entry): T1 sequence (O42713 whole entry)
In words: Inhibition of mushroom tyrosinase at 200 uM.

Assay [2] has as its target T2, Tyrosinase (Agaricus bisporus). The assay can be described thus: Competitive-uncompetitive mixed-2 type inhibition of mushroom tyrosinase assessed as L-DOPA oxidation at 0.05 to 0.10 uM by Lineweaver-Burke double reciprocal plot.
Assay [3] shares this target. In words: Reversible inhibition of mushroom tyrosinase assessed as L-DOPA oxidation at 1.2 to 2.4 uM.
The target is the same in assay [4]. Conditions: 1.06 to 0.12 uM.
Description: Competitive inhibition of mushroom tyrosinase assessed as L-DOPA oxidation at 1.06 to 0.12 uM by Lineweaver-Burke double reciprocal plot

Structures are written as SMILES. The source made the active and inactive calls. The rule behind the calls is not given here. Some results are limits rather than exact numbers.

In general, IC50 refers to the point on the concentration scale where inhibition reaches its midpoint.

Consider `NC(=S)N/N=C\c1ccc(O[C@@H]2O[C@H](CO)[C@@H](O)[C@H](O)[C@H]2O)cc1`, for which half-maximal inhibition against Tyrosinase (IC50) was put at 2.96 µM.
On to `O=C(O[C@@H]1[C@@H](OC(=O)c2ccccc2)[C@H](Oc2ccc(/C=N\O)cc2)OC[C@H]1OC(=O)c1ccccc1)c1ccccc1`, for which, in assay [1], the inhibition result was “inactive”. In addition, on Tyrosinase, the IC50 is > 200 µM.
Take `CC(=O)OC[C@H]1O[C@@H](O[C@H]2[C@H](OC(C)=O)[C@@H](OC(C)=O)[C@H](Oc3ccc(/C=N\NC(N)=S)cc3)O[C@@H]2COC(C)=O)[C@H](OC(C)=O)[C@@H](OC(C)=O)[C@H]1OC(C)=O`: the inhibition entry in assay [2] and in assay [3] was “Active” in each case. At Tyrosinase, the IC50 worked out at 0.65 µM.
At Tyrosinase, `NC(=S)N/N=C\c1ccc(O[C@@H]2OC[C@@H](OC(=O)c3ccccc3)[C@H](OC(=O)c3ccccc3)[C@H]2OC(=O)c2ccccc2)cc1` had an IC50 of 36.5 µM.
For `O=Cc1ccc(O[C@@H]2O[C@H](CO)[C@@H](O)[C@@H](O)[C@H]2O)cc1`, in assay [1], the inhibition entry was “inactive”.
With `CO/N=C\c1ccc(O[C@@H]2O[C@H](COC(=O)c3ccccc3)[C@@H](OC(=O)c3ccccc3)[C@@H](OC(=O)c3ccccc3)[C@H]2OC(=O)c2ccccc2)cc1`, the inhibition entry in assay [1] was “inactive”. For the same molecule, the IC50 against Tyrosinase was > 200 µM.
Taken in the same sequence, the figures for `CO/N=C\c1ccc(O[C@@H]2O[C@H](CO)[C@@H](O)[C@@H](O)[C@H]2O)cc1` were “inactive” and > 200 µM.
Regarding `CCO/N=C\c1ccc(O)c(O)c1`, the half-maximal inhibitory concentration (IC50) at Tyrosinase stood at 0.3 µM.
With `CC(=O)OC[C@H]1O[C@@H](O[C@H]2[C@H](OC(C)=O)[C@@H](OC(C)=O)[C@H](Oc3ccc(/C=N\O)cc3)O[C@@H]2COC(C)=O)[C@H](OC(C)=O)[C@@H](OC(C)=O)[C@H]1OC(C)=O`, the inhibition entry in assay [1] was “inactive”. In addition, the IC50 against Tyrosinase is > 200 µM.
Taken in the same sequence, the figures for `O=C(OC[C@H]1O[C@@H](Oc2ccc(/C=N\O)cc2)[C@H](OC(=O)c2ccccc2)[C@H](OC(=O)c2ccccc2)[C@@H]1OC(=O)c1ccccc1)c1ccccc1` were “inactive” and > 200 µM.
Taken in the same sequence, the figures for `CC(=O)OC[C@H]1O[C@@H](Oc2ccc(/C=N\O)cc2)[C@H](OC(C)=O)[C@@H](OC(C)=O)[C@@H]1OC(C)=O` were “inactive” and > 200 µM.
Taken in the same sequence, the figures for `CO/N=C\c1ccc(O[C@@H]2OC[C@@H](OC(=O)c3ccccc3)[C@H](OC(=O)c3ccccc3)[C@H]2OC(=O)c2ccccc2)cc1` were “inactive” and > 200 µM.
As for `CO/N=C\c1ccc(O[C@@H]2O[C@H](CO)[C@@H](O)[C@H](O)[C@H]2O)cc1`, in assay [1], the inhibition entry was “inactive”. Also, the IC50 against Tyrosinase is > 200 µM.
Taken in the same sequence, the figures for `OC[C@H]1O[C@@H](Oc2ccc(/C=N\O)cc2)[C@H](O)[C@H](O)[C@@H]1O` were “inactive” and > 200 µM.
For the molecule `CC(=O)OC[C@H]1O[C@@H](Oc2ccc(C=O)cc2)[C@H](OC(C)=O)[C@@H](OC(C)=O)[C@@H]1OC(C)=O`, the inhibition result in assay [1] was “inactive”.
Regarding `CO/N=C\c1ccc(O[C@@H]2O[C@H](COC(C)=O)[C@@H](O[C@@H]3O[C@H](COC(C)=O)[C@H](OC(C)=O)[C@H](OC(C)=O)[C@H]3OC(C)=O)[C@H](OC(C)=O)[C@H]2OC(C)=O)cc1`, the inhibition result in assay [1] is “inactive”. Moreover, the IC50 against Tyrosinase was > 200 µM.
Regarding `CO/N=C\c1ccc(O[C@@H]2O[C@H](COC(C)=O)[C@@H](OC(C)=O)[C@@H](OC(C)=O)[C@H]2OC(C)=O)cc1`, the inhibition entry in assay [1] is “inactive”. Besides, the IC50 against Tyrosinase was > 200 µM.
For the molecule `O=Cc1ccc(O[C@@H]2O[C@H](COC(=O)c3ccccc3)[C@@H](OC(=O)c3ccccc3)[C@@H](OC(=O)c3ccccc3)[C@H]2OC(=O)c2ccccc2)cc1`, in assay [1], the inhibition entry is “inactive”.
Regarding `CC(=O)OC[C@H]1O[C@@H](Oc2ccc(/C=N\NC(N)=S)cc2)[C@H](OC(C)=O)[C@@H](OC(C)=O)[C@@H]1OC(C)=O`, the inhibition result in assay [3] and in assay [4] was “Active” each time. This molecule returned an IC50 against Tyrosinase of 0.31 µM.
As to `OC[C@H]1O[C@@H](Oc2ccc(/C=N\O)cc2)[C@H](O)[C@@H](O)[C@@H]1O`, the inhibition entry in assay [1] was “inactive”. Also, on Tyrosinase, the IC50 is > 200 µM.
The molecule `CC(=O)OC[C@H]1O[C@@H](Oc2ccc(/C=N\NC(N)=S)cc2)[C@H](OC(C)=O)[C@@H](OC(C)=O)[C@H]1OC(C)=O` came in with an IC50 against Tyrosinase of 0.41 µM. This lies in the sub-micromolar range.
In the case of `CC(=O)OC[C@H]1O[C@@H](Oc2ccc(/C=N\O)cc2)[C@H](OC(C)=O)[C@H](OC(C)=O)[C@@H]1OC(C)=O`, the inhibition result in assay [1] was “inactive”. Besides, the IC50 against Tyrosinase is > 200 µM.
Taken in the same sequence, the figures for `CC(=O)OC[C@H]1O[C@@H](Oc2ccc(/C=N\O)cc2)[C@H](OC(C)=O)[C@@H](OC(C)=O)[C@H]1OC(C)=O` were “inactive” and > 200 µM.
`NC(=S)N/N=C\c1ccc(O[C@@H]2O[C@H](COC(=O)c3ccccc3)[C@@H](OC(=O)c3ccccc3)[C@@H](OC(=O)c3ccccc3)[C@H]2OC(=O)c2ccccc2)cc1` registered an IC50 on Tyrosinase of 52.8 µM.
With `O=Cc1ccc(O[C@@H]2OC[C@@H](OC(=O)c3ccccc3)[C@H](OC(=O)c3ccccc3)[C@H]2OC(=O)c2ccccc2)cc1`, the inhibition entry in assay [1] is “inactive”.
Same read-out and setting: as for `CC(=O)OC[C@H]1O[C@@H](Oc2ccc(C=O)cc2)[C@H](OC(C)=O)[C@H](OC(C)=O)[C@@H]1OC(C)=O`, the entry is “inactive”; as for `CC(=O)OC[C@H]1O[C@@H](Oc2ccc(C=O)cc2)[C@H](OC(C)=O)[C@@H](OC(C)=O)[C@H]1OC(C)=O`, “inactive”; as for `O=Cc1ccc(O[C@@H]2O[C@H](CO)[C@@H](O)[C@H](O)[C@H]2O)cc1`, “inactive”.
With `CO/N=C\c1ccc(O[C@@H]2O[C@H](COC(C)=O)[C@H](OC(C)=O)[C@H](OC(C)=O)[C@H]2OC(C)=O)cc1`, the inhibition entry in assay [1] was “inactive”. At Tyrosinase, the IC50 was > 200 µM.
Taken in the same sequence, the figures for `CO/N=C\c1ccc(O[C@@H]2O[C@H](COC(C)=O)[C@@H](OC(C)=O)[C@H](OC(C)=O)[C@H]2OC(C)=O)cc1` were “inactive” and > 200 µM.
On Tyrosinase, `NC(=S)N/N=C\c1ccc(O[C@@H]2O[C@H](CO)[C@@H](O)[C@@H](O)[C@H]2O)cc1` returned a half-maximal inhibitory concentration (IC50) of 3.61 µM.
The same measure, in the same setting: as for `CC(=O)OC[C@H]1O[C@@H](Oc2ccc(/C=N\NC(N)=S)cc2)[C@H](OC(C)=O)[C@H](OC(C)=O)[C@@H]1OC(C)=O`, the figure is 3.41 µM.

Values taken from ChEMBL document CHEMBL1156081, “Discovery of 4-functionalized phenyl-O-beta-D-glycosides as a new class of mushroom tyrosinase inhibitors” (Bioorg Med Chem Lett, 2009).
